Results as given in US10874682B2, “Compositions and the use thereof for treating or preventing rosacea” (NESTLÉ SKIN HEALTH SA, priority 2016, dated 2020).

Test system: arachidonic acid-induced ear edema
Assay: Arachidonic acid-induced mouse ear edema test, single topical application
Type: in vivo, Balb/c mice
Parameters: Mean ear edema: unit not given here
Conditions: indomethacin 5%, ivermectin 1%, diclofenac 1%; for Mean ear edema: single topical application on right ear with AA 4%; for Inhibition vs AA 4%: single topical application with AA 4%
Method: Example 1: Evaluation of the Anti-Inflammatory Activity of Ivermectin and Diclofenac after a Single Topical Application in the Arachidonic Acid-Induced Mouse Ear Edema Test on Balb/c Mice
Arachidonic acid is dissolved in a mixture of THF/Methanol at 4%.
Tested compounds were dissolved in arachidonic acid solution, at final concentration.
20 μl of the tested compound is dissolved in arachidonic acid solution and applied on the internal side of the right ear.
The ear thickness is measured at T=0 h, T+1 h, T+2 h, T+4 h.
THF/Methanol is used as vehicle control.
Indomethacin 5% is used as positive control and arachidonic acid at 4% in THF/Methanol is used as inductor of inflammation.

[1] = ear thickness measurement after 1 h
[2] = ear thickness measurement after 2 h
[3] = ear thickness measurement after 4 h

| Molecule | Mean ear edema (1 h measurement) | Mean ear edema (2 h measurement) | Mean ear edema (4 h measurement) | Inhibition vs AA 4% (1 h measurement) | Inhibition vs AA 4% (2 h measurement) | Inhibition vs AA 4% (4 h measurement) | inhibition of the ear edema caused by arachidonic acid [1] [%] | inhibition of the ear edema caused by arachidonic acid [2] [%] | inhibition of the ear edema caused by arachidonic acid [3] [%] |
| --- | --- | --- | --- | --- | --- | --- | --- | --- | --- |
| CCCCC/C=C\C/C=C\C/C=C\C/C=C\CCCC(=O)O [Arachidonic acid (AA), Arachidonic acid] | 18.8 | 16.2 | 13.4 | – | – | – | – | – | – |
| O=C(O)Cc1ccccc1Nc1c(Cl)cccc1Cl [diclofenac, 2-(2-(2,6-dichlorophenylamino)phenyl)acetic acid] | 6 | 4 | 3 | 68.1 | 75.3 | 77.6 | 68 | 75 | 78 |
| COc1ccc2c(c1)c(CC(=O)O)c(C)n2C(=O)c1ccc(Cl)cc1 [indomethacin] | 1 | 1 | 1 | 94.7 | 93.8 | 92.5 | 95 | 94 | 92.5 |
| ivermectin | 8.2 | 8.6 | 6.2 | 56.4 | 46.9 | 53.7 | 56 | 47 | 54 |
